Laboratory results from patent US12528816B2, “Substituted imidazo [1,2-b] pyridazines and [1, 2, 4] triazolo [ 4,3-b] pyridazines as camkii inhibitors” (Cardurion Pharmaceuticals, INC., priority 2020, dated 2026).

The molecules below were run against T1, human CaMKIIδ (Homo sapiens, UniProt Q13557) (assay: Evaluation of in vitro CaMKII inhibitory activity (binding assay, TR-FRET)). Settings: human CaMKIIδ, TR-FRET binding assay; class symbols A/B/C; read-out: Act (CaMKII inhibitory activity, binding assay).
T1 construct: Full-length, glutathione-S-transferase(GST)-tagged, human CaMKIIδ was purchased from Carna Biosciences; purchased Carna Biosciences (CaMKIIδ); Wako Pure Chemical Industries (calmodulin) 02-111
How it was run: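 Inhibitors, in eight concentrations of 4-fold dilution, were incubated 1 h at room temperature with a protein–fluorescent probe premix preformed 30 min on ice, containing calmodulin and terbium anti-GST antibody. Displacement read by TR-FRET in duplicate; IC50 by logistic fitting.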

Row | SMILES | IC50 [nM]
1 | C[C@@H](Cn1cnnn1)Oc1cccc(-c2ccn3ncc(-c4cccc(C(=O)NCCN5CCOCC5)c4)c3n2)c1 [compound 67] | < 10
2 | CCN(CC)C(=O)CNC(=O)c1cccc(-c2cnn3ccc(-c4cccc(O[C@@H](C)Cn5cnnn5)c4)nc23)c1 [compound 68] | < 10
3 | CCN(CC)CCCNC(=O)c1cccc(-c2cnn3ccc(-c4cccc(O[C@@H](C)Cn5cnnn5)c4)nc23)c1 [compound 69] | < 10
4 | C[C@@H](Cn1cnnn1)Oc1cccc(-c2ccn3ncc(-c4cccc(C(=O)NC5CN(C)C5)c4)c3n2)c1 [compound 70] | < 10
5 | C[C@@H](Cn1cnnn1)Oc1cccc(-c2ccn3ncc(-c4cccc(C(=O)N5CCOCC5)c4)c3n2)c1 [compound 71] | 10 to 100
6 | C[C@@H](Cn1cnnn1)Oc1cccc(-c2ccn3ncc(-c4cccc(C(=O)NCC(C)(C)C)c4)c3n2)c1 [compound 72] | < 10
7 | CC(=O)NC1CCN(C(=O)c2cccc(-c3cnn4ccc(-c5cccc(O[C@@H](C)Cn6cnnn6)c5)nc34)c2)CC1 [compound 73] | 10 to 100
8 | C[C@@H](Cn1cnnn1)Oc1cccc(-c2ccn3ncc(-c4cccc(C(=O)NCCCN5CCCC5=O)c4)c3n2)c1 [compound 74] | < 10
9 | CC(=O)N1CCC(NC(=O)c2cccc(-c3cnn4ccc(-c5cccc(O[C@@H](C)Cn6cnnn6)c5)nc34)c2)CC1 [compound 75] | < 10
10 | C[C@@H](Cn1cnnn1)Oc1cccc(-c2ccn3ncc(-c4cccc(C(=O)NCCC5CCN(C)CC5)c4)c3n2)c1 [compound 76] | < 10
11 | CNC(=O)CNC(=O)c1cccc(-c2cnn3ccc(-c4cccc(O[C@@H](C)Cn5cnnn5)c4)nc23)c1 [compound 77] | < 10
12 | C[C@@H](Cn1cnnn1)Oc1cccc(-c2ccn3ncc(-c4cccc(C(=O)NCCCN5CCOCC5)c4)c3n2)c1 [compound 78] | < 10
13 | C[C@@H](Cn1cnnn1)Oc1cccc(-c2ccn3ncc(-c4cccc(C(=O)NCCCCO)c4)c3n2)c1 [compound 79] | < 10
14 | C[C@@H](Cn1cnnn1)Oc1cccc(-c2ccn3ncc(-c4cccc(C(=O)NCC(C)(C)O)c4)c3n2)c1 [compound 80] | < 10
15 | C[C@@H](Cn1cnnn1)Oc1cccc(-c2ccn3ncc(-c4cccc(C(=O)Nc5ccccc5)c4)c3n2)c1 [compound 81] | 10 to 100
16 | C[C@@H](Cn1cnnn1)Oc1cccc(-c2ccn3ncc(-c4cccc(C(=O)Nc5ccncc5)c4)c3n2)c1 [compound 82] | < 10
17 | C[C@@H](Cn1cnnn1)Oc1cccc(-c2ccn3ncc(-c4cccc(C(=O)Nc5ccccn5)c4)c3n2)c1 [compound 83] | < 10
18 | C[C@@H](Cn1cnnn1)Oc1cccc(-c2ccn3ncc(-c4cccc(C(=O)Nc5cccnc5)c4)c3n2)c1 [compound 84] | < 10
19 | C[C@@H](Cn1cnnn1)Oc1cccc(-c2ccn3ncc(-c4cccc(C(=O)Nc5cnn(C)c5)c4)c3n2)c1 [compound 85] | < 10
20 | C[C@@H](Cn1cnnn1)Oc1cccc(-c2ccn3ncc(-c4cccc(C(=O)NC5CN(Cc6ccccc6)C5)c4)c3n2)c1 [compound 86] | < 10
21 | C[C@@H](Cn1cnnn1)Oc1cccc(-c2ccn3ncc(-c4cccc(C(=O)NCCN5CCS(=O)(=O)CC5)c4)c3n2)c1 [compound 87] | < 10
22 | C[C@@H](Cn1cnnn1)Oc1cccc(-c2ccn3ncc(-c4cccc(C(=O)NC5CCN(C)C5)c4)c3n2)c1 (some centres unmarked) [compound 88] | < 10
23 | C[C@@H](Cn1cnnn1)Oc1cccc(-c2ccn3ncc(-c4cccc(C(=O)N5CCC(O)CC5)c4)c3n2)c1 [compound 89] | 10 to 100
24 | CC(=O)NCCNC(=O)c1cccc(-c2cnn3ccc(-c4cccc(O[C@@H](C)Cn5cnnn5)c4)nc23)c1 [compound 90] | < 10
25 | C[C@@H](Cn1cnnn1)Oc1cccc(-c2ccn3ncc(-c4cccc(C(=O)NCc5ccccc5)c4)c3n2)c1 [compound 91] | < 10
26 | C[C@@H](Cn1cnnn1)Oc1cccc(-c2ccn3ncc(-c4cccc(C(=O)NCc5ccccn5)c4)c3n2)c1 [compound 92] | < 10
